≈ marks a conversion by molar mass, not a printed value.
How the values were obtained:
Assay in all cases: in vitro antibacterial evaluation, MIC by broth dilution
Type in all cases: cell-based
Enterococcus sp. = details: broth dilution, 18 hours at 35° C.; for MIC Enterococcus faecalis (ATCC 29212): strain ATCC 29212; for MIC Enterococcus faecalis (GC 2242): strain GC 2242; for MIC Enterococcus faecium (GC 2243): strain GC 2243; for MIC Enterococcus faecalis (GC 2691): strain GC 2691; for MIC Enterococcus faecalis (GC 3059): strain GC 3059; for MIC Enterococcus faecalis (GC 4552): strain GC 4552; for MIC Enterococcus faecalis (GC 4553): strain GC 4553; for MIC Enterococcus faecalis (GC 4554): strain GC 4554; for MIC Enterococcus faecium (GC 4556): strain GC 4556; for MIC Enterococcus faecium (GC 4557): strain GC 4557; for MIC Enterococcus avium (GC 4558): strain GC 4558; for MIC Enterococcus faecalis (GC 6189): strain GC 6189
Method in brief: (§1)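 Following National Committee for Clinical Laboratory Standards recommendations (M7-A2), susceptibility was measured by dilution in Muller-Hinton II […]. Bacteria were seeded at 5×10^5 CFU/mL against compound concentrations from 64 down to 0.06 μg/mL.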

Escherichia coli = tested on: Escherichia coli
Method in brief: as §1

Staphylococcus sp. = details: broth dilution, 18 hours at 35° C.; for MIC Staphylococcus aureus (GC 1131): strain GC 1131
Method in brief: as §1

Streptococcus sp. = details: broth dilution, 18 hours at 35° C.; for MIC Streptococcus pneumoniae (ATCC 6301): strain ATCC 6301; for MIC Streptococcus pneumoniae (GC 1894): strain GC 1894; for MIC Streptococcus pyogenes (GC 4563): strain GC 4563; for MIC Streptococcus agalactiae (GC 4564): strain GC 4564; for MIC Streptococcus pneumoniae (GC 4565): strain GC 4565
Method in brief: as §1

MIC Enterococcus faecalis (ATCC 29212) (Enterococcus sp.; inoculum 5×10^5 CFU/mL): 2 µg/mL (≈ 1.36 µM)
MIC Enterococcus faecalis (GC 2242) (Enterococcus sp.; inoculum 5×10^5 CFU/mL): 2 µg/mL (≈ 1.36 µM)
MIC Enterococcus faecium (GC 2243) (Enterococcus sp.; inoculum 5×10^5 CFU/mL): 2 µg/mL (≈ 1.36 µM)
MIC Enterococcus faecalis (GC 2691) (Enterococcus sp.; inoculum 5×10^5 CFU/mL): 2 µg/mL (≈ 1.36 µM)
MIC Enterococcus faecalis (GC 3059) (Enterococcus sp.; inoculum 5×10^5 CFU/mL): 2 µg/mL (≈ 1.36 µM)
MIC Enterococcus faecalis (GC 4552) (Enterococcus sp.; inoculum 5×10^5 CFU/mL): 2 µg/mL (≈ 1.36 µM)
MIC Enterococcus faecalis (GC 4553) (Enterococcus sp.; inoculum 5×10^5 CFU/mL): 2 µg/mL (≈ 1.36 µM)
MIC Enterococcus faecalis (GC 4554) (Enterococcus sp.; inoculum 5×10^5 CFU/mL): 2 µg/mL (≈ 1.36 µM)
MIC Enterococcus faecium (GC 4556) (Enterococcus sp.; inoculum 5×10^5 CFU/mL): 2 µg/mL (≈ 1.36 µM)
MIC Enterococcus faecium (GC 4557) (Enterococcus sp.; inoculum 5×10^5 CFU/mL): 1 µg/mL (≈ 0.678 µM)
MIC Enterococcus avium (GC 4558) (Enterococcus sp.; inoculum 5×10^5 CFU/mL): 2 µg/mL (≈ 1.36 µM)
MIC Enterococcus faecalis (GC 6189) (Enterococcus sp.; inoculum 5×10^5 CFU/mL): 2 µg/mL (≈ 1.36 µM)
MIC Enterococcus faecalis (ATCC 29212) (Enterococcus sp.): 2 µg/mL (≈ 1.36 µM)
MIC Enterococcus faecalis (GC 2242) (Enterococcus sp.): 2 µg/mL (≈ 1.36 µM)
MIC Enterococcus faecium (GC 2243) (Enterococcus sp.): 2 µg/mL (≈ 1.36 µM)
MIC Enterococcus faecalis (GC 2691) (Enterococcus sp.): 2 µg/mL (≈ 1.36 µM)
MIC Enterococcus faecalis (GC 3059) (Enterococcus sp.): 2 µg/mL (≈ 1.36 µM)
MIC Enterococcus faecalis (GC 4552) (Enterococcus sp.): 2 µg/mL (≈ 1.36 µM)
MIC Enterococcus faecalis (GC 4553) (Enterococcus sp.): 2 µg/mL (≈ 1.36 µM)
MIC Enterococcus faecalis (GC 4554) (Enterococcus sp.): 2 µg/mL (≈ 1.36 µM)
MIC Enterococcus faecium (GC 4556) (Enterococcus sp.): 2 µg/mL (≈ 1.36 µM)
MIC Enterococcus faecium (GC 4557) (Enterococcus sp.): 1 µg/mL (≈ 0.678 µM)
MIC Enterococcus avium (GC 4558) (Enterococcus sp.): 2 µg/mL (≈ 1.36 µM)
MIC Enterococcus faecalis (GC 6189) (Enterococcus sp.): 2 µg/mL (≈ 1.36 µM)
MIC Escherichia coli (ATCC 25922) (Escherichia coli; strain ATCC 25922, 18 hours at 35° C.): 64 µg/mL (≈ 43.4 µM)
MIC Escherichia coli (GC 4559) (Escherichia coli; strain GC 4559, 18 hours at 35° C.): 16 µg/mL (≈ 10.9 µM)
MIC Escherichia coli (GC 4560) (Escherichia coli; strain GC 4560, 18 hours at 35° C.): 0.5 µg/mL (≈ 0.339 µM)
MIC Staphylococcus aureus (GC 1131) (Staphylococcus sp.; inoculum 5×10^5 CFU/mL): 1 µg/mL (≈ 0.678 µM)
MIC Staphylococcus aureus (ATCC 29213) (Staphylococcus sp.; strain ATCC 29213): 1 µg/mL (≈ 0.678 µM)
MIC Staphylococcus aureus (GC 1131) (Staphylococcus sp.): 1 µg/mL (≈ 0.678 µM)
MIC Staphylococcus aureus (GC 3051) (Staphylococcus sp.; strain GC 3051): 1 µg/mL (≈ 0.678 µM)
MIC Staphylococcus aureus (GC 3053) (Staphylococcus sp.; strain GC 3053): 1 µg/mL (≈ 0.678 µM)
MIC Staphylococcus aureus (GC 4541) (Staphylococcus sp.; strain GC 4541): 1 µg/mL (≈ 0.678 µM)
MIC Staphylococcus aureus (GC 4542) (Staphylococcus sp.; strain GC 4542): 1 µg/mL (≈ 0.678 µM)
MIC Staphylococcus aureus-SMITH (GC 4543) (Staphylococcus sp.; strain GC 4543): 1 µg/mL (≈ 0.678 µM)
MIC Staphylococcus aureus (GC 4544) (Staphylococcus sp.; strain GC 4544): 2 µg/mL (≈ 1.36 µM)
MIC Staphylococcus aureus (GC 4545) (Staphylococcus sp.; strain GC 4545): 1 µg/mL (≈ 0.678 µM)
MIC Coagulase Negative Staphylococcus (GC 4547) (Staphylococcus sp.; strain GC 4547): 2 µg/mL (≈ 1.36 µM)
MIC Coagulase Negative Staphylococcus (GC 4548) (Staphylococcus sp.; strain GC 4548): 0.5 µg/mL (≈ 0.339 µM)
MIC Coagulase Negative Staphylococcus (GC 4549) (Staphylococcus sp.; strain GC 4549): 0.5 µg/mL (≈ 0.339 µM)
MIC Coagulase Negative Staphylococcus (GC 4551) (Staphylococcus sp.; strain GC 4551): 1 µg/mL (≈ 0.678 µM)
MIC Streptococcus pneumoniae (ATCC 6301) (Streptococcus sp.; inoculum 5×10^5 CFU/mL): <0.12 µg/mL
MIC Streptococcus pneumoniae (GC 1894) (Streptococcus sp.; inoculum 5×10^5 CFU/mL): <0.12 µg/mL
MIC Streptococcus pyogenes (GC 4563) (Streptococcus sp.; inoculum 5×10^5 CFU/mL): 0.5 µg/mL (≈ 0.339 µM)
MIC Streptococcus agalactiae (GC 4564) (Streptococcus sp.; inoculum 5×10^5 CFU/mL): <0.12 µg/mL
MIC Streptococcus pneumoniae (GC 4565) (Streptococcus sp.; inoculum 5×10^5 CFU/mL): <0.12 µg/mL
MIC Streptococcus pneumoniae (ATCC 6301) (Streptococcus sp.): <0.12 µg/mL
MIC Streptococcus pneumoniae (GC 1894) (Streptococcus sp.): <0.12 µg/mL
MIC Streptococcus pyogenes (GC 4563) (Streptococcus sp.): 0.5 µg/mL (≈ 0.339 µM)
MIC Streptococcus agalactiae (GC 4564) (Streptococcus sp.): <0.12 µg/mL
MIC Streptococcus pneumoniae (GC 4565) (Streptococcus sp.): <0.12 µg/mL
SMILES: CSc1ccc(C2OCC3OC(OC4C(CO)OC(Oc5ccc(CC6NC(=O)C(C(C)c7ccccc7)NC(=O)CNC(=O)C(CO)NC(=O)C(C(O)C7CNC(=N)N7C7OC(CO)C(O)C(O)C7O)NC(=O)C(C(O)C7CNC(=N)N7)NC6=O)cc5)C(O)C4O)C(O)C(O)C3O2)cc1[N+](=O)[O-] (stereo not shown) [Example 168]
MIC Staphylococcus haemolyticus (GC 4546) (Staphylococcus sp.; strain GC 4546): 0.5 µg/mL (≈ 0.339 µM)

Source: patent publication US6914045B2, “Glycopeptide antibiotics” (Wyeth Holdings Corporation, priority 2001, dated 2005)
